Measured values from patent US12473262B2, “Aryl hydrocarbon receptor activators” (Oregon State University, priority 2019, dated 2025).
Like-named read-outs stand apart in the source and are kept apart here.

Experiments:
[1] = human, microsomes, 0.5 h, 1 μM, pH 7.4
Experimental: (§3) The assessment of metabolic stability of testing compounds was performed using human, mouse, rat, dog and monkey liver microsomes (20 mg protein/ml). Each reaction mixture contained 42.5 μL of 0.1 M potassium phosphate buffer pH 7.4, containing respective LM protein (final concentration 0.5 mg/ml). 2.5 μL of the compound stock solution was added in it (1 μM final concentration). The reaction was initiated by the addition of 5 μL NADPH solution (final Concentration 1 mM). At different time points (0, 5, 15, and 30 minutes), samples were quenched with 200 μL of cold acetonitrile containing ISTD Propranolol. Samples were centrifuged at 3500 rpm for 20 mM at 4° C. Supernatant was subjected to LC-MS/MS analysis for quantification. Verapamil was used as a positive control.

[2] = rat, microsomes, 0.5 h, 1 μM, pH 7.4
in vitro [3] = details: human, microsomes, pH 7.4
Experimental: as §3

in vitro [4] = details: mouse, microsomes, pH 7.4
Experimental: as §3

[5] = mouse, microsomes, 0.5 h, 1 μM, pH 7.4
Experimental: as §3

[6] = target: aryl hydrocarbon receptor (AhR) (Mus musculus (Mouse), UniProt P30561); assay: AhR ligand screening: AhRE-luciferase reporter in transfected Hepa1 cells; assay type: cell-based; details: for Fold @ 1 nM: fold change of luciferase expression at 1 nM test compound relative to vehicle (0.1% DMSO); for Fold @ 100 nM: fold change of luciferase expression at 100 nM test compound relative to vehicle (0.1% DMSO); for Fold @ 10 uM: fold change of luciferase expression at 10 uM test compound relative to vehicle (0.1% DMSO); for Fold relative to benchmark @ 100 nM: luciferase expression at 100 nM test compound relative to 100 nM benchmark compound 11-cl-BBQ
In short: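 Values are fold luciferase induction relative to vehicle (0.1% DMSO), read by luminometry of lysates from Hepa1 cells carrying an AhRE-driven luciferase reporter. Cells were seeded at 1×10^4 per well, grown overnight and treated with compound before lysis.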

in vitro [7] = details: rat, microsomes, pH 7.4
[8] = Liver microsomal stability, human
Experimental: as §3

[9] = Liver microsomal stability, mouse
Experimental: as §3

CYP-2D6 = CYP-2D6 (Homo sapiens (Human), UniProt P10635); assay: CYP panel profile: P450 inhibition, CYP-2D6; assay type: in vitro ADME; details: human liver microsomes
Experimental: (§1) 5. CYP Panel Profile: P450 Inhibition
(§2) From 10 mM stock solutions of test compounds, a dilution plate was prepared diluting serially starting from 5 mM up to 2 μM in Acetonitrile/DMSO or Methanol/DMSO Human liver Microsomes were added at required concentration as per specific CYP isoform in a deep well assay plate (1A2, 2C9, 2D6, 2B6, 2C8, 2C19, and 3A4). Compounds were spiked in all wells from dilution plate at final concentrations starting from 50 μM up to 0.02 μM, except for positive and negative control. Specific substrate were added to all wells and reactions were pre-incubated for 10 min. To start reactions, NADPH was added to all wells at 1 mM final concentration. Assay plate was mixed by vortexing and incubated at 37° C. for […] for 3A4.20 min for (1A2, 2C9, 2B6, 2C8, 2D6) and […] for 2C19. A quencher with chilled acetonitrile suitable internal standard was added. Samples were centrifuged and supernatants were collected and subjected to LC-MS/MS analysis for determination.

CYP-2C9 = CYP-2C9 (Homo sapiens (Human), UniProt P11712); assay: CYP panel profile: P450 inhibition, CYP-2C9; assay type: in vitro ADME; details: human liver microsomes
Experimental: as §1, §2

CYP-2C8 = CYP-2C8 (Homo sapiens (Human), UniProt P10632); assay: CYP panel profile: P450 inhibition, CYP-2C8; assay type: in vitro ADME; details: human liver microsomes
Experimental: as §1, §2

CYP-2C19 = CYP-2C19 (Homo sapiens (Human), UniProt P33261); assay: CYP panel profile: P450 inhibition, CYP-2C19; assay type: in vitro ADME; details: human liver microsomes
Experimental: as §1, §2

CYP-1A2 = CYP-1A2 (Homo sapiens (Human), UniProt P05177); assay: CYP panel profile: P450 inhibition, CYP-1A2; assay type: in vitro ADME; details: human liver microsomes; read-out: CYP-1A2 IC50
Experimental: as §1, §2

CYP-3A4 = CYP-3A4 (Homo sapiens (Human), UniProt P08684); assay: CYP panel profile: P450 inhibition, CYP-3A4; assay type: in vitro ADME; details: human liver microsomes
Experimental: as §1, §2

[10] = Liver microsomal stability, rat
CYP-2B6 = CYP-2B6 (Homo sapiens (Human), UniProt P20813); assay: CYP panel profile: P450 inhibition, CYP-2B6; assay type: in vitro ADME; details: human liver microsomes
Experimental: as §1, §2

[11] = In vivo PK study, intravenous and oral administration in male mice; set-up: species or system mouse; details: plasma; for C0: read-out: C0_Cmax
Experimental: In Vivo PK Study Pharmacokinetics of Exemplary Compounds 362 and 893 Following an Intravenous and Oral Administration in Male C57BL/6J Mice.
Male C57BL/6J mice, approximately 8-10 weeks old, were obtained from the vivarium of Fundación Ciencia & Vida Chile (Santiago, Chile). Dosing solution of Compound 362 for PO administration was formulated in a vehicle containing 40% DMSO, 20% Kolliphor EL, 40% Propylene Glycol at 0.8 mg/mL. Dosing solution of Compound 362 for IV administration was formulated in a vehicle containing 30% DMSO, 20% Kolliphor EL, 50% PBS at […].
Male […] mice, approximately 8-11 weeks old, 22-27 grams were obtained from the vivarium Fundación Ciencia & Vida Chile (Santiago, Chile). Animals were acclimated for a minimum period of 4 days upon arrival at the testing facility. Animals were weighed, identified by marking the tail with numbers using a non-toxic permanent marker and designated into the following treatment groups on the day of dosing:
Group 1 animals received an IV administration via caudal vein of 2 mg/kg PRXS0362 dosing solution.
Group 2 animals received a PO administration via feeding tubes (20 gauge) of 8 mg/kg PRXS0362 dosing solution.
Terminal whole blood was collected via cardiac puncture for group 1 at the following time points: 5, 10, 15, 30, 60, 120, 240, 360, and 480 minutes. Non-dosed mice were used to collect samples of zero time points. For the group 2 at the following time point: 15, 30, 60, 120, 240, 360, and 480 minutes.
Whole blood, approximately 300 μL per time point, was collected into microtainer tubes with EDTA (K2). Blood samples were centrifuged immediately at approximately 9,000 G at 4° C. for 5 minutes and plasma separated. Plasma samples were placed into individually labeled tubes and stored in a −80° C. freezer prior to LC/MS/MS analysis.
The whole brain was collected at each point only for both groups, for this the animals were euthanized with CO2, decapitated, the brain was extracted weighed, frozen in liquid nitrogen and stored at −80° C. prior to LC/MS/MS analysis.
Compound 893 was tested by the same protocol as above.

T1D = details: murine model; cited from earlier work
[12] = acute or chronic treatment of mice, therapeutic dose; cited from earlier work
GVHD = details: murine model; cited from earlier work
[13] = human, liver microsomes, pH 7.4
[14] = mouse, liver microsomes, pH 7.4

Chain of aryl hydrocarbon receptor (AhR) (P30561 10-805): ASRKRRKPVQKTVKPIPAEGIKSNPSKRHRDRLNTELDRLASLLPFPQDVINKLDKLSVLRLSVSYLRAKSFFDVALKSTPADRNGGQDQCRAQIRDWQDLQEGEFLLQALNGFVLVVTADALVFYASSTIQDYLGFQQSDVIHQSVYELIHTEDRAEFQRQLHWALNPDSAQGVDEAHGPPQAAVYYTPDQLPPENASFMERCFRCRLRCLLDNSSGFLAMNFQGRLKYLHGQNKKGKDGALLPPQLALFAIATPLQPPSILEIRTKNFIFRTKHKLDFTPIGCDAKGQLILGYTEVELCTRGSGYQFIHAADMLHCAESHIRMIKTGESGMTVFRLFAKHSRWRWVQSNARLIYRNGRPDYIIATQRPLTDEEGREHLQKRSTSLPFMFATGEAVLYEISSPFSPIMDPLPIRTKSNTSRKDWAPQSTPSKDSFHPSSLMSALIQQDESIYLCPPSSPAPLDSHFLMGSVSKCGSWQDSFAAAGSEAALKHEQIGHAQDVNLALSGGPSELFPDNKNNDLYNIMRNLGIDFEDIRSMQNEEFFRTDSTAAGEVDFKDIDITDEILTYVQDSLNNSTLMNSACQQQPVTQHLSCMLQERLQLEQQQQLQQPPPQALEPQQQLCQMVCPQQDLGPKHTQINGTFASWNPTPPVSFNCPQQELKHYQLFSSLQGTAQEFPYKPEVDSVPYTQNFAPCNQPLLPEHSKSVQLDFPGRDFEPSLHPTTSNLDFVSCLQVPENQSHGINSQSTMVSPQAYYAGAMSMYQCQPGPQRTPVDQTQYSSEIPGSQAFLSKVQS
Chain of aryl hydrocarbon receptor (AhR) (P53762 whole entry partner): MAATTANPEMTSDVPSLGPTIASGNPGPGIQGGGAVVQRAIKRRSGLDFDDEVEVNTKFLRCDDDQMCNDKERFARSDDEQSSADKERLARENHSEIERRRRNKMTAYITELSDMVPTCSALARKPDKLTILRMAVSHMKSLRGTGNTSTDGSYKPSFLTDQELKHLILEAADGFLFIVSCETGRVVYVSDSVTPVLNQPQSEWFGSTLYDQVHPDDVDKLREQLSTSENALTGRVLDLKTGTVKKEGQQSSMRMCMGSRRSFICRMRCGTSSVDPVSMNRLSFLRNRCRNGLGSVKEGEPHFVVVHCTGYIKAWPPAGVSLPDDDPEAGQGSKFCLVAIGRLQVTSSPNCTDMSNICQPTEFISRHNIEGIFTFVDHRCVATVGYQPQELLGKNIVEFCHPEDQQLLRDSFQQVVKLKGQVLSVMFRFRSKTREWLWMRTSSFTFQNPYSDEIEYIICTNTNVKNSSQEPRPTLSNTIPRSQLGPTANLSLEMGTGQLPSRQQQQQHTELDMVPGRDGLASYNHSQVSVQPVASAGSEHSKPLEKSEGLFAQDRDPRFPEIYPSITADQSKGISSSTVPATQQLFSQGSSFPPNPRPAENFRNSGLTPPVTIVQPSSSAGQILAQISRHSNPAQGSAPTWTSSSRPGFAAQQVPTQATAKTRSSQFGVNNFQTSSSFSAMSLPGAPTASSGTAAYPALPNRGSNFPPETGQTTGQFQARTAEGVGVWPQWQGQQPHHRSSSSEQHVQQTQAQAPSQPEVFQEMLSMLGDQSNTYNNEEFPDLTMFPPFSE
Chain of CYP-3A4 (P08684 whole entry): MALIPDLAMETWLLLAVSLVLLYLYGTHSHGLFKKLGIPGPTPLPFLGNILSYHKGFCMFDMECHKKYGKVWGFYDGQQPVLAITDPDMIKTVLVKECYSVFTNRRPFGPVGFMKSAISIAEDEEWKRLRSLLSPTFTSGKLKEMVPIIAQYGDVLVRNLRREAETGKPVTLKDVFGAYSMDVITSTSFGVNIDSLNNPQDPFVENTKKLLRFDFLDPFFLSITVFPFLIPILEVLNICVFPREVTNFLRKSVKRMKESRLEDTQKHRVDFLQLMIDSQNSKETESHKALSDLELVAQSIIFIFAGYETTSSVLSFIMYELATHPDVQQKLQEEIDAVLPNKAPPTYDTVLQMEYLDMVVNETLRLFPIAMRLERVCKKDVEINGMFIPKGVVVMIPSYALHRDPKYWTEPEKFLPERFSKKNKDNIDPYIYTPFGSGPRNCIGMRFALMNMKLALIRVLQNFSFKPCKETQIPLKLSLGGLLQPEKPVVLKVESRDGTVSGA
Chain of CYP-1A2 (P05177 whole entry): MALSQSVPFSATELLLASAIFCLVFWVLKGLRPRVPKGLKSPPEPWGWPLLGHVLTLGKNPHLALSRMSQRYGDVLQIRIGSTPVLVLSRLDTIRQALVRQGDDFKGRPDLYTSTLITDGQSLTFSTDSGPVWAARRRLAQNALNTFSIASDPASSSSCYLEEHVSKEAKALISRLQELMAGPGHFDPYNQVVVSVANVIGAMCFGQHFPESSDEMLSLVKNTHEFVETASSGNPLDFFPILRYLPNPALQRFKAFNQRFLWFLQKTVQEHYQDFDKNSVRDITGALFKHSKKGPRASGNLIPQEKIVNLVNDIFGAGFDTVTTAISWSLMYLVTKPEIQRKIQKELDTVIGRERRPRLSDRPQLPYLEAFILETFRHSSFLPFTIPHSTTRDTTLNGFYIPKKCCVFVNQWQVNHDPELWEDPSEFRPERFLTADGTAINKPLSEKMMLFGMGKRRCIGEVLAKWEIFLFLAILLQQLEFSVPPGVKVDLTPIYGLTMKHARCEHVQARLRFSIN
Chain of CYP-2C19 (P33261 whole entry): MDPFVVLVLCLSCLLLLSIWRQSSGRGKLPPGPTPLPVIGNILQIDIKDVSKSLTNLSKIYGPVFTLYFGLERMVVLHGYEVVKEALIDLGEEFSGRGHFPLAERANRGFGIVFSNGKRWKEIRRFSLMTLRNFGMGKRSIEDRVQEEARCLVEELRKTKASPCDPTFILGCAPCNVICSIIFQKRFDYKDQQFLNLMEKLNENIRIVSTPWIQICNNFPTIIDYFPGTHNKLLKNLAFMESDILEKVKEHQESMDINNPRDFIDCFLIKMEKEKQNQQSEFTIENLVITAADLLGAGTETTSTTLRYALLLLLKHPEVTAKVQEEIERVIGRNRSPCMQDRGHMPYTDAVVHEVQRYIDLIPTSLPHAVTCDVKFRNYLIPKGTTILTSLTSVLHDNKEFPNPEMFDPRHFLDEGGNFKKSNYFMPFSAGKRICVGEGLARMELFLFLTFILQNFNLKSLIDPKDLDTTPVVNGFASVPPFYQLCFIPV
Chain of CYP-2C9 (P11712 whole entry): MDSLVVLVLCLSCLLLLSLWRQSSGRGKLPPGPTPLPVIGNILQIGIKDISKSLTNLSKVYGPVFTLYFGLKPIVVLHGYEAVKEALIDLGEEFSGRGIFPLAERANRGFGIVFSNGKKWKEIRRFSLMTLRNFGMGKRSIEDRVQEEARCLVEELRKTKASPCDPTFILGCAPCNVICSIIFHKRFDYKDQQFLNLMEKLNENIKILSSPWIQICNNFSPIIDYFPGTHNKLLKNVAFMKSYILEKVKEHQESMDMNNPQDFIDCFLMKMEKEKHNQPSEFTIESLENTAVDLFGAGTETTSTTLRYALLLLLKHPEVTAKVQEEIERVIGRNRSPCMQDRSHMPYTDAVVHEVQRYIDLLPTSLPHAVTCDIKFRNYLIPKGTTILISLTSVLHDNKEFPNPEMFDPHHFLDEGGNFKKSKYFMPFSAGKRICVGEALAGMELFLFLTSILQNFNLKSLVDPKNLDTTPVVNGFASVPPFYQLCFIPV
Chain of CYP-2C8 (P10632 whole entry): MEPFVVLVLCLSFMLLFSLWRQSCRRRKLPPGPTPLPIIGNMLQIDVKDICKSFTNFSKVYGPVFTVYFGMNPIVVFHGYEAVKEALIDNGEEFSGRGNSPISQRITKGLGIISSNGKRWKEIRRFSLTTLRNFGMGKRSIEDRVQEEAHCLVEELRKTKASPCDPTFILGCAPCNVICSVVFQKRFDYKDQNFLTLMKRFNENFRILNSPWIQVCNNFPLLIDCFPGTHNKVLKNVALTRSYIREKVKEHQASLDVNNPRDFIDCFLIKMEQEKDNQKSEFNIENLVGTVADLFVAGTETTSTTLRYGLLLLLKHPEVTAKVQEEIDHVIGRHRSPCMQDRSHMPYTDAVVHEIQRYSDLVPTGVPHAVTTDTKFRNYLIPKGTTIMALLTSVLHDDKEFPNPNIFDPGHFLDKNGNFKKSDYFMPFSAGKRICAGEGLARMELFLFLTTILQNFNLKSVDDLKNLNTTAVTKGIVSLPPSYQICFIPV
Chain of CYP-2D6 (P10635 whole entry): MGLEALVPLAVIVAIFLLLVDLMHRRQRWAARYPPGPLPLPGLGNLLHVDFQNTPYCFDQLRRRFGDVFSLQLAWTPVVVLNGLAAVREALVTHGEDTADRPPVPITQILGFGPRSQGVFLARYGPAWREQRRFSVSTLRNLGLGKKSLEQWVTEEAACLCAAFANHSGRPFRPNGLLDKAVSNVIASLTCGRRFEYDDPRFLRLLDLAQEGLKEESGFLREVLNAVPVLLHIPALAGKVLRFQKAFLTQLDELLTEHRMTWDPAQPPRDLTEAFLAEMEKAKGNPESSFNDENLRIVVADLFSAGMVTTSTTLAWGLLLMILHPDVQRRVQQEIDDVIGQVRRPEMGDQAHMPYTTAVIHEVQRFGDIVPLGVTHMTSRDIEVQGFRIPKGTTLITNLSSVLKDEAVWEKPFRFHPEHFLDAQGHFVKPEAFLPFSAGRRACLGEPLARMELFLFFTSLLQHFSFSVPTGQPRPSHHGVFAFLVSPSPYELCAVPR

Question: Which results are given for `O=C(c1cccc2ccccc12)c1c[nH]c2cc(Cl)c(Cl)cc12` [Compound 434]?
Answer: Rem @ HLM × 30 min [1]: 63.4%; Rem @ RLM × 30 min [2]: 41.6%; half-life at 1 μM (in vitro [3]): 48.7 min; microsomal CLint at 1 μM (in vitro [3]): 28.5 µL/min/mg; half-life at 1 μM (in vitro [4]): 10.7 min; microsomal CLint at 1 μM (in vitro [4]): 129 µL/min/mg; Rem @ MLM × 30 min [5]: 10.6%; Fold @ 1 nM [6]: 1 fold; Fold @ 100 nM [6]: 1 fold; Fold @ 10 uM [6]: 9 fold; Fold relative to benchmark @ 100 nM [6]: 0.03 fold; half-life at 1 μM (in vitro [7]): 28 min; microsomal CLint at 1 μM (in vitro [7]): 49.6 µL/min/mg

Question: Which “Rem @ HLM × 30 min” value [1] does the source give for `O=C(c1ccc2ccccc2c1)c1c[nH]c2ccc(Cl)cc12` [Compound 885] here?
Answer: 58.1%

Question: And the “Rem @ RLM × 30 min” value [2]?
Answer: 50.2%

Question: And the half-life at 1 μM (in vitro [3])?
Answer: 36.8 min

Question: What about the microsomal CLint at 1 μM (in vitro [3]) of the same compound?
Answer: 37.7 µL/min/mg

Question: What about the half-life at 1 μM (in vitro [4]) of the same compound?
Answer: 27.5 min

Question: What about the microsomal CLint at 1 μM (in vitro [4]) of the same compound?
Answer: 50.4 µL/min/mg

Question: What about the “Rem @ MLM × 30 min” value [5] of the same compound?
Answer: 45.1%

Question: What about the “Fold @ 1 nM” value [6] of the same compound?
Answer: 1 fold

Question: What about the “Fold @ 100 nM” value [6] of the same compound?
Answer: 1 fold

Question: What about the “Fold @ 10 uM” value [6] of the same compound?
Answer: 1 fold

Question: What about the “Fold relative to benchmark @ 100 nM” value [6] of the same compound?
Answer: 0.02 fold

Question: What about the half-life at 1 μM (in vitro [7]) of the same compound?
Answer: 30.7 min

Question: What about the microsomal CLint at 1 μM (in vitro [7]) of the same compound?
Answer: 45.1 µL/min/mg

Question: Which results are given for `Clc1ccc2[nH]c(-c3cccc4ccccc34)cc2c1` [Compound 893, 5-chloro-2-(naphthalen-1-yl)-1H-indole]?
Answer: Rem @ HLM × 30 min ([8]; human liver microsomes, 30 min, 1 μM compound, 0.5 mg/ml protein): 19.6%; half-life at 1 μM [8, 13]: 14.1 min; microsomal CLint at 1 μM [8, 13]: 98.5 µL/min/mg; Rem @ MLM × 30 min ([9]; mouse liver microsomes, 30 min, 1 μM compound, 0.5 mg/ml protein): 16.7%; half-life at 1 μM [9, 14]: 12.2 min; microsomal CLint at 1 μM [9, 14]: 114 µL/min/mg; IC50 (CYP-2D6): 31.7 µM; IC50 (CYP-2C9): 7.2 µM; IC50 (CYP-2C8): 7.7 µM; IC50 (CYP-2C19): 2.9 µM; IC50 (CYP-1A2): 0.5 µM; Fold @ 1 nM [6]: 1 fold; Fold @ 100 nM [6]: 49 fold; Fold @ 10 uM [6]: 49 fold; Fold relative to benchmark @ 100 nM [6]: 0.91 fold; IC50 (CYP-3A4): 23.3 µM; Rem @ RLM × 30 min ([10]; rat liver microsomes, 30 min, 1 μM compound, 0.5 mg/ml protein): 51.7%; half-life at 1 μM ([10]; rat, liver microsomes, pH 7.4): 35.8 min; microsomal CLint at 1 μM ([10]; rat, liver microsomes, pH 7.4): 38.8 µL/min/mg; IC50 (CYP-2B6): 8 µM; CL_CL/F ([11]; IV 2 mg/Kg): 4.218 L/[Kg*h]; Vd_Vd/F ([11]; IV 2 mg/Kg): 8.777 L/kg; thalf ([11]; IV 2 mg/Kg): 1.442 h; CL_CL/F ([11]; PO 8 mg/Kg): 5.739 L/[Kg*h]; Vd_Vd/F ([11]; PO 8 mg/Kg): 12.846 L/kg; thalf ([11]; PO 8 mg/Kg): 1.551 h; AUC(0-inf) ([11]; mouse, IV 2 mg/Kg): 474 ng·h/mL; AUC(0-t) ([11]; mouse, IV 2 mg/Kg): 451 ng·h/mL; MRT ([11]; mouse, IV 2 mg/Kg): 120 min; C0 ([11]; mouse, IV 2 mg/Kg): 174 ng/mL; bioavailability ([11]; mouse, PO 8 mg/Kg vs IV 2 mg/Kg): 73.5%; AUC(0-inf) ([11]; mouse, PO 8 mg/Kg): 1390 ng·h/mL; AUC(0-t) ([11]; mouse, PO 8 mg/Kg): 1330 ng·h/mL; MRT ([11]; mouse, PO 8 mg/Kg): 160 min; Tmax ([11]; mouse, PO 8 mg/Kg): 60 min; C0 ([11]; mouse, PO 8 mg/Kg): 398 ng/mL

Question: Which “development of T1D” value (T1D) does the source give for `O=c1c2cccc3cccc(c32)c2nc3cc(Cl)ccc3n12` [Compound 11-Cl-BBQ, 11-chloro-7H-benzimidazo[2,1-a]benzo[de]-Iso-quinolin-7-one] here?
Answer: suppress the development of T1D

Question: And the overt toxicity [12]?
Answer: no overt toxicity

Question: What about the “development of GVHD” value (GVHD) of the same compound?
Answer: suppress the development of T1D and GVHD
